Assay results from patent US20250129070A1, “BIFUNCTIONAL ANDROGEN RECEPTOR COMPOUNDS” (priority 2023, published 2025).

How the values were obtained:
AR / CBP ternary complex = assay: Ternary complex formation assay (sandwich ELISA, AR capture / CBP detection) in VCaP cell lysates; assay type: cell-based; details: 1.5 hours treatment, sandwich ELISA (AR capture, CBP or p300 detection)
In short: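 Anti-AR (AR 441)-coated plates capture AR from lysates of VCaP cells grown ≥3 days at 50K/well in 5% charcoal-stripped FBS, dosed with bifunctional for 1.5 h and lysed 30 min at 4 °C. Co-captured CBP/p300 is probed with rabbit mAb and HRP anti-rabbit, then QuantaRed fluorescence (570/585) is read at 0, 5 and 15 min.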

VCaP cells = assay: VCaP growth inhibition assay; assay type: cell-based; details: 30 pM R1881, 9 days, CTG
In short: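 Growth read by CTG luminescence after 9-day exposure to compound (final 100 nM–10 fM, 1:5 steps) plus 30 pM R1881, in phenol red-free DMEM with 5% CSS. Cells pre-incubated 72 h before dosing; IC50 by nonlinear 4-parameter regression.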

Structure (SMILES) | EC50 (AR / CBP ternary complex) [nM] | IC50 (VCaP cells) [nM]
CC(=O)N1CCc2c(c(N3CCCc4cc(-c5cnn(C)c5)c(C)cc43)nn2C2CCN(CC3CCN(c4ncc(C(=O)NC5C(C)(C)C(Oc6ccc(C#N)c(Cl)c6C)C5(C)C)cn4)CC3(C)C)CC2)C1 (centres unmarked) [Compound 464, 2-[4-[[4-[5-acetyl-3-[7-methyl-6-(1-methylpyrazol-4-yl)-3,4-dihydro-2H-quinolin-1-yl]-6,7-dihydro-4H-pyrazolo[4,3-c]pyridin-1-yl]-1-piperidyl]methyl]-3,3-dimethyl-1-piperidyl]-N-[3-(3-chloro-4-cyano-2-methyl-phenoxy)-2,2,4,4-tetramethyl-cyclobutyl]pyrimidine-5-carboxamide] | < 1 | ≤ 0.1
C[C@@H]1CC(=O)Nc2cccc(-c3ccc4c(c3)c(-c3cnn(C)c3)nn4CCN3CCN(c4ncc(C(=O)NC5C(C)(C)C(Oc6ccc(C#N)c(Cl)c6)C5(C)C)cn4)CC3)c2N1 (stereo partly drawn) [Compound 56, N-[3-(3-chloro-4-cyano-phenoxy)-2,2,4,4-tetramethyl-cyclobutyl]-2-[4-[2-[5-[(4R)-4-methyl-2-oxo-1,3,4,5-tetrahydro-1,5-benzodiazepin-6-yl]-3-(1-methylpyrazol-4-yl)indazol-1-yl]ethyl]piperazin-1-yl]pyrimidine-5-carboxamide] | < 1 | 0.1 to 1
CC(=O)N1CCc2c(c(N3CCCc4cc(-c5cnn(C)c5)c(C(F)F)cc43)nn2C2CCN(CC3CCN(c4ncc(C(=O)NC5C(C)(C)C(Oc6ccc(C#N)c(Cl)c6)C5(C)C)nn4)CC3)CC2)C1 (centres unmarked) [Compound 152] | > 100 | ≤ 0.1
Cn1cc(-c2cc3cccc(-c4cc(C5CCN(CC6CCN(c7ncc(C(=O)NC8C(C)(C)C(Oc9ccc(C#N)c(Cl)c9)C8(C)C)cn7)CC6)CC5)c5c(c4)n(C)c(=O)n5C)c3cn2)cn1 (centres unmarked) [Compound 213, N-[3-(3-chloro-4-cyano-phenoxy)-2,2,4,4-tetramethyl-cyclobutyl]-2-[4-[[4-[1,3-dimethyl-6-[3-(1-methylpyrazol-4-yl)-8-isoquinolyl]-2-oxo-benzimidazol-4-yl]-1-piperidyl]methyl]-1-piperidyl]pyrimidine-5-carboxamide] | > 100 | 0.1 to 1
CC(=O)N1CCc2c(c(N3CCCc4cc(-c5cnn(C)c5)c(C(F)F)cc43)nn2C2CCN(CC3CCN(c4ncc(C(=O)NC5C(C)(C)C(Oc6ccc(C#N)c(Cl)c6)C5(C)C)cn4)CC3)C2)C1 (centres unmarked) [Compound 21, 2-[4-[[3-[5-acetyl-3-[7-(difluoromethyl)-6-(1-methylpyrazol-4-yl)-3,4-dihydro-2H-quinolin-1-yl]-6,7-dihydro-4H-pyrazolo[4,3-c]pyridin-1-yl]pyrrolidin-1-yl]methyl]-1-piperidyl]-N-[3-(3-chloro-4-cyano-phenoxy)-2,2,4,4-tetramethyl-cyclobutyl]pyrimidine-5-carboxamide] | 1 to 10 | 0.1 to 1
CC(=O)N1CCc2c(c(N3CCCc4cc(-c5cnn(C)c5)c(C(F)F)cc43)nn2C2CCN(C3CC4(CCC(Oc5ncc(C(=O)NC6C(C)(C)C(Oc7ccc(C#N)c(Cl)c7)C6(C)C)cn5)CC4)C3)CC2)C1 (centres unmarked) [Compound 395, 2-[2-[4-[5-acetyl-3-[7-(difluoromethyl)-6-(1-methylpyrazol-4-yl)-3,4-dihydro-2H-quinolin-1-yl]-6,7-dihydro-4H-pyrazolo[4,3-c]pyridin-1-yl]-1-piperidyl]spiro[3.5]nonan-7-yl]oxy-N-[3-(3-chloro-4-cyano-phenoxy)-2,2,4,4-tetramethyl-cyclobutyl]pyrimidine-5-carboxamide] | < 1 | 0.1 to 1
COc1cc(OC2C(C)(C)C(NC(=O)c3ccc(N4CCC(N5CCC(n6nc(N7CCCc8cc(-c9cnn(C)c9)c(C(F)F)cc87)c7c6CCN(C(C)=O)C7)CC5)CC4)cc3)C2(C)C)ccc1C#N (centres unmarked) [Compound 277, 4-[4-[4-[5-acetyl-3-[7-(difluoromethyl)-6-(1-methylpyrazol-4-yl)-3,4-dihydro-2H-quinolin-1-yl]-6,7-dihydro-4H-pyrazolo[4,3-c]pyridin-1-yl]-1-piperidyl]-1-piperidyl]-N-[3-(4-cyano-3-methoxy-phenoxy)-2,2,4,4-tetramethyl-cyclobutyl]benzamide] | < 1 | ≤ 0.1
